Each compound was assayed on Plasmodium falciparum (assay: GSK_TCMDC: Inhibition of Plasmodium falciparum 3D7 in whole erythrocytes, using parasite LDH activity as an index of growth.). Details: Plasmodium falciparum, 3D7.
Format: functional, organism-based

SMILES	XC50 [nM]
Cc1ccc(NC(=O)Nc2cccc(Cl)c2)cc1-c1ccc(C(=O)Nc2ccncc2)cc1	738
OC(CNCc1ccccc1OC(F)F)c1cccc(C(F)(F)F)c1 (centres undefined)	765
CC(C)Nc1cc(C(=O)N[C@@H](Cc2ccccc2)[C@H](O)CNC(C)(C)c2cccc(C(F)(F)F)c2)cc(N2CCCCS2(=O)=O)c1	79.4
Cc1ccc(F)cc1S(=O)(=O)NCC(C)c1ccc(NC(=O)Nc2cccc(F)c2)cc1 (centres undefined)	973
CN(C)CCN(C)Cc1ccc(-c2ccc3c(Nc4ccc(F)cc4Cl)ccnc3c2)o1	118
O=S(=O)(NCCN1CCCC1)c1ccc(-c2ccc(CNC3Cc4ccccc4C3)cc2)cc1	664
O=C(Nc1ccccc1)N(Cc1cccc(-c2cccc(CNCCc3ccccc3)c2)c1)C1CCN(Cc2ccccc2)CC1	307
CN(c1cc(NC(=O)c2cccs2)ccn1)C1CCN(Cc2cccc(C#N)c2)CC1	1260
Cc1cc(N2CCCC2)nc(Nc2ccc(NC(=O)c3ccccc3C)cc2)n1	724
CC1(C)N=C(N)N=C(N)N1c1ccc(Oc2ccc(Cl)cc2)c(Cl)c1	78.9
CC(C)CCNCc1ccc(OCc2ccccc2COc2ccc(CNCCC(C)C)cc2I)c(I)c1	425
NC(=O)c1cccc(Nc2nccc(Nc3ccc(Oc4c(Cl)cccc4Cl)c(Cl)c3)n2)c1	871
Cc1cc(-c2cccc(CNC3CCCC3)c2)ccc1S(=O)(=O)NCCN1CCCC1	1240
Cc1ccccc1Nc1cc(Nc2ccccc2C)c2ccccc2n1	782
NC(=O)c1cc2nc(NC3CCC3)nc(Nc3cccc4[nH]ncc34)c2[nH]1	732
Cc1cccc2nc(-c3ccc(-c4cccc(CN5CCCC(O)C5)c4)s3)[nH]c12 (centres undefined)	942
O=C(Cn1c(CCc2cccc(F)c2F)nc(=O)c2ccccc21)N(CCCN1CCCCC1)Cc1ccc(-c2ccc(C(F)(F)F)cc2)cc1	762
Cc1ccc(NC(=O)Nc2ccc(I)c(OCCN(C)C)c2)cc1Cl	564
Cn1cc(C(=O)Nc2cccc(-c3cccc(-c4nc5ccccc5[nH]4)c3)c2)n(C)c1=O	715
Cc1ccccc1CNc1ccc2nc(N)nc(N)c2c1	171
COc1ccc(Cl)cc1NC(=O)Nc1ccnc2ccccc12	675
c1ccc(CCNc2ccnc(Nc3ccc4[nH]nnc4c3)n2)cc1	863
Cc1cnc2ccc(NS(=O)(=O)c3ccc4c(Cl)cccc4c3)cc2c1N1CCNCC1	751
O=C(NC1CCN(CCN2CCC(c3ccccc3C(F)(F)F)CC2)CC1)c1ccc(-c2ccc(Cl)cc2)cc1	714
NC1=NC2(CCCCC2)N(OCCCCCCC2CCCCC2)C(N)=N1	356

SMILES	XC50 [nM]
CC(C)NCc1cccc(-c2ccc(NC(=O)c3ccc(F)cc3)cc2)c1	850
CCOc1ccccc1CNc1nccc(NCCc2cn(C)c3ccccc23)n1	1260
O=C(Nc1ccc(-c2cccc(-c3nc4cc(F)ccc4[nH]3)c2)cc1)c1ccncc1	719
O=C(CCc1c[nH]cn1)Nc1ccc(-c2ccc(-c3nc4cc(F)ccc4[nH]3)cc2)cc1	693
CC(C)NCc1ccc(-c2ccc(CN3CCCC(c4ccccc4)C3)cc2)c(C(=O)NCC2CCCCC2)c1 (centres undefined)	722
CC(C)c1sc(N2CCN(C)CC2)nc1C(=O)NCCc1cccc(Cl)c1	1490
N=C1N=C(N)NC2(CCCCC2)N1OCCOc1ccc(Cc2ccccc2)cc1	1130
O=C(NCc1cccc(F)c1)Nc1ccc(-c2cccc(-c3nc4cc(F)ccc4[nH]3)c2)cc1	772
O=C(NCc1ccc(C(F)(F)F)cc1)c1cccc(-c2nnc(-c3cccc(-c4cncnc4)c3)o2)c1	544
CCN(CC)/C(=N/C(=N)Nc1ccc(Cl)cc1)NCCCCCCCCN/C(=N\C(=N)Nc1ccc(Cl)cc1)N(CC)CC	403
CC(C)(C)CCN1CCC(CNC(=O)c2cc(-c3cccc(C(F)(F)F)c3)cs2)C1 (centres undefined)	887
Cc1cc(-c2cc3nc4c(c(O)n3n2)CCCC4)c(C)o1	821
Brc1cc(Br)c2c(c1)C(NCCCNC1CCNc3c(Br)cc(Br)cc31)CCN2 (centres undefined)	823
CC1CN(Cc2csc(Nc3ccccc3)n2)CC(C)O1 (centres undefined)	1020
Clc1ccc2c(NCc3ccccn3)ccnc2c1	664
CC(=O)Nc1cccc(Nc2nccc(-c3c(-c4cccc(NC(=O)c5c(F)cccc5F)c4)nn4ncccc34)n2)c1	184
Fc1cccc(C=NN=c2cc[nH]c3ccc(C(F)(F)F)cc23)c1	733
Cc1ccc(C(=O)Nc2ccc(F)cc2)cc1-c1nc(NC2CC(C)(C)NC(C)(C)C2)nc2c1ccc(=O)n2-c1c(F)cccc1F	684
Cc1onc(-c2c(F)cccc2Cl)c1C(=O)Nc1ccccc1I	952
COc1cc(Cc2cnc(N)nc2N)cc(OCCCCCCN2C(=O)c3ccccc3C2=O)c1OC	1100
COc1cc(C(=O)NC2CC(C)(C)N(C)C(C)(C)C2)ccc1-c1cc2cc(Cl)c(Cl)cc2[nH]1	1140
Cc1nc(-c2ccc(-c3ccc(C(=O)Nc4ccc(I)c(OCCN5CCCC5)c4)cc3)c(C)c2)no1	964
c1ccc(Oc2ccc(Nc3ccnc4cc(-c5ccc(CN6CCNCC6)o5)ccc34)cc2)nc1	243
O=C(/C=C/c1ccc(Cl)c(Cl)c1)N1CCC(CCN2CCC(c3c[nH]c4ccncc34)CC2)CC1	1140
COc1ccc2nccc([C@@H](O)CN3CCC(NCc4cc5c(F)ccc(F)c5[nH]4)CC3)c2n1	699

SMILES	XC50 [nM]
COc1ccc(NC(=O)CCNc2cc(C)nc(NCCOc3ccccc3)n2)cc1	746
N#Cc1ccc(-c2cnc3ccc(NCc4ccc(S(N)(=O)=O)cc4)nn23)cc1	785
Cn1nc(-c2ccc(CNC3CCc4ccccc43)cc2)c2cnc(NCCN3CCCC3)nc21 (centres undefined)	1350
OC(CNc1ccnc(Nc2cccc(CCN3CCOCC3)c2)n1)c1ccccc1 (centres undefined)	594
COc1ccc(O)c(C(=O)c2cc(C(=O)NCCc3ccccc3)c(=O)n(CCc3ccccc3)c2)c1	1010
CO/C(=C\C=C\c1cc2cc(Cl)c(Cl)cc2[nH]1)C(=O)NC1CC2CCC(C1)N2C (centres undefined)	1030
COc1cc(F)c2ncc(Cl)c(C(O)CN3CCC(NC(=O)c4ccc5c(c4)NC(=O)CS5)CC3)c2c1 (centres undefined)	680
CC(CCCCC(=O)Nc1ccc(CC(C)NCCc2cccc(Cl)c2)cc1)NCCc1cccc(Cl)c1 (centres undefined)	1010
COc1ccc(NC(=O)[C@H](Cc2ccccc2)Nc2cc(C)nc(Nc3ccccc3)n2)cc1	1010
Cc1cc(-c2ccc(O)c(CNC3CCCCC3)c2)cnc1N	203
COc1ccc2nccc([C@@H](O)CN3CCC(NCc4ccc5sc(=O)[nH]c5c4)CC3)c2c1	287
COc1ccc2nccc([C@@H](O)CN3CCC(NC(=O)C(c4cc5ccccc5o4)N4CCN(C(c5ccccc5)c5ccccc5)CC4)CC3)c2c1 (some centres undefined)	149
CSc1ccc2nccc(Nc3ccc(Oc4ccccc4)cc3)c2c1	871
O=S(=O)(c1ccc(OCc2ccc(Cl)cc2)cc1)c1cc2c(cc1O)CCN(C1CCC1)CC2	942
COc1ccc(CN2CCCN(Cc3cccc(NC(=O)c4ccc(Cl)c(Cl)c4)c3)CC2)cc1	973
CCc1sc(-c2cc(Cl)ccc2OC)nc1C(=O)NCCN1CCCCC1	938
Cc1nc2nc(N)nc(N)c2c(C)c1Cc1cccc(C(F)(F)F)c1	1290
N#Cc1cccc(C(=O)N2CCOC(CCN3CCC(c4ccccc4)CC3)(c3ccc(Cl)c(Cl)c3)C2)c1 (centres undefined)	1040
Cc1nnnn1-c1ccc(C(=O)N2CCC3(CC2)CN(Cc2ccc(Cl)c(Cl)c2)C(=O)O3)cc1	181
O=C(NCc1ccc(C(=O)N2CCC(N3CCCCC3)CC2)cc1)c1cc(-c2cccc(C(F)(F)F)c2)ccc1O	817
CC(C)(C)c1ccc(CN2CCCCC(NC(=O)c3cc(-c4ccccc4F)cs3)C2)cc1 (centres undefined)	267
O=C(N[C@@H](Cc1ccccc1)C(=O)NC1CCCCC1)c1ccc(O)c(-c2cccc(C(F)(F)F)c2)c1	809
NS(=O)(=O)c1cccc(Nc2nc(N[C@@H]3CCNC3)nc3cc[nH]c(=O)c23)c1	940
COc1ccc(COc2c(OC)cc(Cc3cnc(N)nc3N)cc2OC)cc1	912
O=C(NCCCCN1CCN(c2cccc3c2OCCO3)CC1)c1ccc(NC(=O)c2cc(Cl)cc(Cl)c2)cc1	225

SMILES	XC50 [nM]
CN1CCN(CC2(Nc3nccc(NCCc4cn(C)c5ccccc45)n3)CCCCC2)CC1	1810
Fc1cccc(COc2ccc(Nc3ncnc4sc(C#CC5CCCCN5)cc34)cc2Cl)c1 (centres undefined)	540
Cc1cccc(-c2cc3cc(Nc4ccnc5cc(-c6nccs6)ccc45)ccc3[nH]2)c1	174
O=S(=O)(NCCN1CCCC1)c1cccc(-c2cccc(CNCc3ccccc3)c2)c1	811
N=C(N)NN=CC(=O)Nc1ccc(Br)cc1	884
O=C(Nc1ccc(F)c(Cl)c1)c1cc([N+](=O)[O-])cc2cn[nH]c12	315
COc1cccc(C(=O)Nc2nonc2-c2ccc(OC)c(OC)c2)c1	801
Nc1nc(N)c2cc(C(F)(F)F)ccc2n1	1130
CN(C)c1ccc(C=Cc2ccc3ccccc3n2)c(Cl)c1	436
NC1CCCN(Cc2cccc(-c3ccc(-c4nc5ccccc5[nH]4)s3)c2)C1 (centres undefined)	585
CC(C(=O)N1CCCC1)N1CCN(S(=O)(=O)c2ccc(C(C)(C)C)cc2)CC1 (centres undefined)	636
COc1cc(Nc2ncnc3cc(OC)c(OC)cc23)cc([N+](=O)[O-])c1	810
N=c1n(CCN2CCCCC2)c2ccccc2n1CC(O)c1cccc(Br)c1 (centres undefined)	1140
COc1ccc(C[C@H]2NC[C@H](O)[C@H]2OC(C)=O)cc1 [ANISOMYCIN]	138
CC(Oc1ccc(NC(=O)c2cccs2)cc1)C(=O)c1ccc(Cl)cc1 (centres undefined)	774
CCCCSc1c(CNCCCCCCNCc2ccc3ccccc3c2SCCCC)ccc2ccccc12	999
Cc1cccc(CNc2nc(C)cc(NCCC(=O)Nc3ccccc3)n2)c1	1050
O=c1cc(NCCCNC2CCCc3c2ccc2ccccc32)[nH]c2ccccc12 (centres undefined)	824
O=C(Nc1ccc2c(c1)OCO2)c1cc(-c2cccnc2)cnc1NCc1ccc2c(c1)OCO2	1190
COc1ccc2c(NN=Cc3ccncc3)ccnc2c1	956
O=C(/C=C/c1ccc2ccccc2c1)NC1CCC(CN2CCC(c3c[nH]c4ccccc34)CC2)CC1 (centres undefined)	727
Cc1sc2ncnc(Sc3nnc(N)s3)c2c1C	399
Nc1nc2c(c(=O)[nH]1)CN(S(=O)(=O)c1ccc(C(=O)N[C@@H](CCC(=O)O)C(=O)O)cc1)CC2	146
COc1ccc2nc(C)cc(Nc3ccc(Cl)c(Cl)c3)c2c1	441
